# Reference: ChEMBL document CHEMBL1159219, “Flavonoids as DNA topoisomerase antagonists and poisons: structure-activity relationships” (J Nat Prod, 1995)
# pIC50: −log10 of the molar value. Active and inactive are the calls of the source. The calls are words filed in the database; no cut-off is given here.
# How the values were obtained:
# [1] = target: T1, DNA topoisomerase 2-alpha (Homo sapiens, UniProt P11388); test: Enhancement of human DNA topoisomerase 2-mediated Escherichia coli pUC8 DNA cleavage after 30 mins by agarose gel electrophoresis; design: concentration or dose not given beside the values
# T1 sequence (P11388 whole entry, the tested form may be a part): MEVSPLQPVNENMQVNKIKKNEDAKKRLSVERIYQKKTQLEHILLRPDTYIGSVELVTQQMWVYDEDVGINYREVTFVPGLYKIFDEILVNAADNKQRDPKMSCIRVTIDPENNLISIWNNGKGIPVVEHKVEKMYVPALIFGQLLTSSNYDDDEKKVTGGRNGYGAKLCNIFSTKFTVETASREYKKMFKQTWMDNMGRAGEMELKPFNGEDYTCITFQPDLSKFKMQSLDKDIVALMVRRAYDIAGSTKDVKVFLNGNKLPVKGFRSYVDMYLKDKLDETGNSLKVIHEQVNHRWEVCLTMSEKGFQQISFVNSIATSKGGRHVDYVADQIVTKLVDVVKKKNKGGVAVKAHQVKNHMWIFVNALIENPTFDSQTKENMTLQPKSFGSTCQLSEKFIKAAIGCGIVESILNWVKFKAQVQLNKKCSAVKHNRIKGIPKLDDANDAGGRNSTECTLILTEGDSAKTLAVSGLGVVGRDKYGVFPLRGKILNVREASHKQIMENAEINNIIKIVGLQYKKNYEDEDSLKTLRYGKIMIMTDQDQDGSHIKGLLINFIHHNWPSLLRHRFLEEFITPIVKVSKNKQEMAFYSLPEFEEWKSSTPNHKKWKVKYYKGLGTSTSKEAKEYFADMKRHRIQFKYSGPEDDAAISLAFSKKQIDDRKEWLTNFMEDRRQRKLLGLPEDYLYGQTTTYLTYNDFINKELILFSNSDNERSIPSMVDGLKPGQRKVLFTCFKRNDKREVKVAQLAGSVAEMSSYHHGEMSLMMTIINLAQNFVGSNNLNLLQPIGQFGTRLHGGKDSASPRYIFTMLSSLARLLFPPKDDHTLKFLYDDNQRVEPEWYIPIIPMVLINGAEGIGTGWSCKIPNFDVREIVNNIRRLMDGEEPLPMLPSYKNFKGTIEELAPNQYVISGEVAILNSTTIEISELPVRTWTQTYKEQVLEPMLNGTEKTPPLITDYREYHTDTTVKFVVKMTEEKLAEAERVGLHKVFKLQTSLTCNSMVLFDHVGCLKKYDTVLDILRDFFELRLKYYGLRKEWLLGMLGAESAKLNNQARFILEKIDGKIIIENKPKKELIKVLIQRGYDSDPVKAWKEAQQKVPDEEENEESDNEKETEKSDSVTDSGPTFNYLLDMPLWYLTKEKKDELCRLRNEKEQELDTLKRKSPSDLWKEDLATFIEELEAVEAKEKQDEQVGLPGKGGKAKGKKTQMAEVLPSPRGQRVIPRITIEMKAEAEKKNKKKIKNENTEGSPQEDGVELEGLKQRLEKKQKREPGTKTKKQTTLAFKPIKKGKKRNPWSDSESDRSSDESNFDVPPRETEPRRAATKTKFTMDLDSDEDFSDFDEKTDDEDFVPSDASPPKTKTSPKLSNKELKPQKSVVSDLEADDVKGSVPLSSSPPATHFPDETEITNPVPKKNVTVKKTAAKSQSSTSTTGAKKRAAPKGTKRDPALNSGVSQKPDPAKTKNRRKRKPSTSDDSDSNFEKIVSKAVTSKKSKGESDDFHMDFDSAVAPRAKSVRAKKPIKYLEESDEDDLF
# [2] = target: T1, DNA topoisomerase 2-alpha; test: Inhibition of human DNA topoisomerase 2 catalytic domain-mediated knotted bacteriophage P4Virl dell0 DNA unknotting up to 100 uM by agarose gel electrophoresis
# Bos taurus [3] = organism: Bos taurus; test: Inhibition of calf thymus DNA topoisomerase 1 catalytic domain-mediated supercoiled Escherichia coli pUC8 DNA relaxation up to 100 uM after 30 mins by agarose gel electrophoresis
# [4] = target: T1, DNA topoisomerase 2-alpha; test: Enhancement of human DNA topoisomerase 2-mediated Escherichia coli pUC8 DNA cleavage assessed as production of linear DNA at 100 ug/ml after 30 mins by agarose gel electrophoresis relative to total DNA
# [5] = target: T1, DNA topoisomerase 2-alpha; test: Enhancement of human DNA topoisomerase 2-mediated Escherichia coli pUC8 DNA cleavage assessed as production of linear DNA at 100 ug/ml after 30 mins by agarose gel electrophoresis relative to control
# Escherichia coli = test: Binding affinity to Escherichia coli pUC8 DNA assessed as production of linear DNA at 100 ug/ml after 30 mins by agarose gel electrophoresis
# [6] = target: T1, DNA topoisomerase 2-alpha; test: Inhibition of human DNA topoisomerase 2-mediated Escherichia coli pUC8 DNA cleavage enhancement assessed as absence of linear DNA production at 100 ug/ml after 30 mins by agarose gel electrophoresis in presence of 100 ug/ml genistein
# [7] = target: T1, DNA topoisomerase 2-alpha; test: Inhibition of human DNA topoisomerase 2-mediated Escherichia coli pUC8 DNA cleavage enhancement assessed as reduction of linear DNA production after 30 mins by agarose gel electrophoresis in presence of 10 fold excess genistein
# [8] = Inhibition of calf thymus DNA topoisomerase 1 catalytic domain-mediated supercoiled Escherichia coli pUC8 DNA relaxation after 30 mins by agarose gel electrophoresis; design: species or system Bos taurus
# [9] = target: T1, DNA topoisomerase 2-alpha; test: Enhancement of human DNA topoisomerase 2-mediated Escherichia coli pUC8 DNA cleavage assessed as production of linear DNA at 3 to 100 ug/ml after 30 mins by agarose gel electrophoresis
# Bos taurus [10] = organism: Bos taurus; test: Inhibition of calf thymus DNA topoisomerase 1-mediated Escherichia coli pUC8 DNA cleavage enhancement assessed as absence of linear DNA production after 30 mins by agarose gel electrophoresis in presence of camptothecin
# [11] = target: T1, DNA topoisomerase 2-alpha; test: Inhibition of human DNA topoisomerase 2-mediated Escherichia coli pUC8 DNA cleavage enhancement assessed as absence of linear DNA production after 30 mins by agarose gel electrophoresis in presence of prunetin
# [12] = target: T1, DNA topoisomerase 2-alpha; test: Inhibition of human DNA topoisomerase 2 catalytic domain-mediated knotted bacteriophage P4Virl dell0 DNA unknotting by agarose gel electrophoresis
# [13] = target: T1, DNA topoisomerase 2-alpha; test: Enhancement of human DNA topoisomerase 2-mediated Escherichia coli pUC8 DNA cleavage assessed as production of linear DNA at 30 ug/ml after 30 mins by agarose gel electrophoresis
# [14] = target: T1, DNA topoisomerase 2-alpha; test: Enhancement of human DNA topoisomerase 2-mediated Escherichia coli pUC8 DNA cleavage assessed as production of linear DNA at 100 ug/ml after 30 mins by agarose gel electrophoresis
# Bos taurus [15] = organism: Bos taurus; test: Inhibition of calf thymus DNA topoisomerase 1 catalytic domain-mediated supercoiled Escherichia coli pUC8 DNA relaxation at 100 uM after 30 mins by agarose gel electrophoresis
# [16] = target: T1, DNA topoisomerase 2-alpha; test: Inhibition of human DNA topoisomerase 2 catalytic domain-mediated knotted bacteriophage P4Virl dell0 DNA unknotting at 100 uM by agarose gel electrophoresis
SMILES,Activity [1] [%],Activity [2],Activity (Bos taurus [3]),pIC50 [12],further results
O=c1cc(-c2ccccc2)oc2cccc(O)c12,< 50,inactive,inactive,–,–
O=c1cc(-c2ccccc2)oc2cc(O)ccc12,–,inactive,inactive,–,–
O=c1cc(-c2ccc(O)cc2)oc2cc(O)cc(O)c12,60,inactive,inactive,–,Activity [4]: 8.7%; Activity [5]: 1.6; Activity (Escherichia coli): inactive
O=c1c(O)c(-c2cc(O)c(O)c(O)c2)oc2cc(O)cc(O)c12 [MYRICETIN],–,–,–,–,Activity [6]: Active; Activity [7]: inactive; IC50 [8]: 11.9 µg/mL; Activity [9]: inactive; Activity (Bos taurus [10]): inactive; Activity [11]: Active
O=c1c(-c2ccc(O)c(O)c2)coc2cc(O)ccc12,–,inactive,inactive,–,–
O=c1cc(-c2ccccc2)oc2ccc(O)cc12,< 50,inactive,inactive,–,–
O=c1c(-c2ccc(O)cc2)coc2cc(O)cc(O)c12 [GENISTEIN],–,–,inactive,3.95,Activity [4]: 16.2%; Activity [13]: Active; Activity [5]: 3.1; Activity (Escherichia coli): inactive; Activity [14]: Active
O=c1c(O)c(-c2ccccc2)oc2ccccc12,–,inactive,inactive,–,–
O=c1c(-c2ccc(O)cc2)coc2cc(O)ccc12,–,inactive,inactive,–,–
COc1cc(O)c2c(=O)c(-c3ccc(O)cc3)coc2c1,60,inactive,inactive,–,Activity [4]: 9.2%; Activity [5]: 1.7; Activity (Escherichia coli): inactive
O=c1c(O)c(-c2ccc(O)cc2)oc2cc(O)cc(O)c12,60,inactive,inactive,–,Activity [4]: 8.3%; Activity [5]: 1.6; Activity (Escherichia coli): inactive
O=c1c(O)c(-c2ccc(O)c(O)c2)oc2cc(O)ccc12 [FISETIN],< 50,–,–,4.54,IC50 [8]: 20.6 µg/mL
O=c1c(O)c(-c2ccccc2)oc2cc(O)cc(O)c12,–,inactive,inactive,–,–
Oc1cc(O)c2c(c1)O[C@H](c1ccc(O)c(O)c1)[C@@H](O)C2,–,inactive,inactive,–,–
O=c1c(O)c(-c2ccc(O)cc2O)oc2cc(O)cc(O)c12 [MORIN],< 50,–,–,3.87,IC50 [8]: 42.1 µg/mL
O=c1c(O)c(-c2ccc(O)c(O)c2)oc2cc(O)cc(O)c12 [QUERCETIN],60,–,–,4.64,Activity (Bos taurus [15]): Active; Activity [4]: 11.5%; Activity [5]: 2.2; IC50 [8]: 12.8 µg/mL; Activity (Escherichia coli): inactive; Activity [16]: Active
O=C(CCc1ccc(O)cc1)c1c(O)cc(O)cc1O [PHLORETIN],–,–,inactive,3.77,–
O=c1cc(-c2ccccc2)oc2ccccc12,–,inactive,inactive,–,–
O=c1c(-c2ccc(O)cc2)coc2cc(O)c(O)cc12,–,–,inactive,3.79,–
C[C@@H]1O[C@@H](OC[C@H]2O[C@@H](Oc3c(-c4ccc(O)c(O)c4)oc4cc(O)cc(O)c4c3=O)[C@H](O)[C@@H](O)[C@@H]2O)[C@H](O)[C@H](O)[C@H]1O,–,inactive,inactive,–,–
